In the Deep4Chem optical property database:
Blank lines part the entries; values can stand above or below the compound they belong to.

Assay: solvent given as SMILES

Compound: COc1ccc(OC)c(C(C)=O)c1
- emission maximum (in CO): 449 nm

Compound: c1ccc(-c2cc(-c3ccccc3)cc(-c3ccc4c(c3)C3(c5ccccc5-4)c4ccccc4-c4c3c3c5ccccc5c(-c5cc(-c6ccccc6)cc(-c6ccccc6)c5)cc3c3ccccc43)c2)cc1 (centres undefined)
- emission maximum (in C1CCOC1): 440 nm

Compound: Cc1cc(=O)oc2c1cc(Br)c1occ(C)c12
- emission maximum (in C1CCCCC1): 400 nm
- emission maximum (in C1COCCO1): 407 nm
- emission maximum (in CC#N): 413 nm
- emission maximum (in CCO): 416 nm
- emission maximum (in OCC(F)(F)F): 426 nm

Compound: Cc1cc2ccc(-c3cccc4cccc(-c5ccc6cc(C)c(=O)oc6c5)c34)cc2oc1=O
- emission maximum (in C1CCCCC1): 392 nm
- emission maximum (in C1COCCO1): 399 nm
- emission maximum (in CC#N): 420 nm
- emission maximum (in CCO): 442 nm
- emission maximum (in CCOC(C)=O): 403 nm
- emission maximum (in CN(C)C=O): 417 nm
- emission maximum (in CO): 452 nm
- emission maximum (in c1ccccc1): 398 nm

Compound: FC(F)(F)c1cc2n(n1)[B-]1(c3ccccc3-c3ccccc31)[n+]1ccc3ccccc3c1-2
- emission maximum (in C1CCCCC1): 490 nm
- emission maximum (in Cc1ccccc1): 538 nm
- emission maximum (in ClCCl): 564 nm

Compound: COc1cc2c(cc1-c1ccc(C(F)(F)F)cc1)Cc1c3c(c4c(c1-2)-c1cc(OC)c(-c2ccc(C(F)(F)F)cc2)cc1C4)C(=O)N(CCC(C)C)C3=O
- emission maximum (in C1CCOC1): 458 nm

Compound: CC1(C)c2ccccc2N(c2cc[n+]3c(c2)-c2ccccc2O[B-]3(F)F)c2ccccc21
- emission maximum (in Cc1ccccc1): 540 nm
- emission maximum (in O=P(c1ccccc1)(c1ccccc1)c1ccccc1Oc1ccccc1P(=O)(c1ccccc1)c1ccccc1): 542 nm

Compound: CN(C)c1ccc(/C=C2\OC(=O)c3cc(N)ccc32)cc1
- emission maximum (in CC#N): 561.8 nm
- emission maximum (in CC(C)=O): 537.06 nm
- emission maximum (in CC(C)CO): 542.89 nm
- emission maximum (in CC(C)O): 550.06 nm
- emission maximum (in CCCO): 559.91 nm
- emission maximum (in CCO): 568.18 nm
- emission maximum (in CCOC(C)=O): 520.83 nm
- emission maximum (in CCOCC): 444.84 nm
- emission maximum (in CO): 568.18 nm

Compound: CCCCn1c(-c2ccc(-c3nnc(-c4ccc(-c5nc(-c6ccccc6)c(-c6ccccc6)n5CCCC)cc4)o3)cc2)nc(-c2ccccc2)c1-c1ccccc1
- emission maximum (in ClCCl): 445 nm

Compound: CN(C)c1ccc2nc(/C=C/c3cc4c5c(c3)CCCN5CCC4)c(=O)oc2c1
- emission maximum (in C1CCCCC1): 543 nm
- emission maximum (in C1COCCO1): 611 nm
- emission maximum (in CC#N): 709 nm
- emission maximum (in CC(C)=O): 679 nm
- emission maximum (in CCCCCCC): 540 nm
- emission maximum (in CCO): 705 nm
- emission maximum (in CCOC(C)=O): 628 nm
- emission maximum (in CN(C)C=O): 704 nm
- emission maximum (in CS(C)=O): 715 nm
- emission maximum (in Cc1ccccc1): 596 nm
- emission maximum (in ClC(Cl)Cl): 671 nm
- emission maximum (in ClCCl): 678 nm

Compound: N#CC(C#N)=Cc1ccc2nc(C#Cc3ccc(N(c4ccccc4)c4ccccc4)cc3)sc2c1
- emission maximum (in Cc1ccccc1): 535 nm

Compound: CCOC(=O)/C(C#N)=C\c1ccc2c(c1)c1ccccc1n2-c1ccc(C)cc1
- emission maximum (in C1CCOC1): 461 nm
- emission maximum (in CC#N): 508 nm
- emission maximum (in CC(C)=O): 503 nm
- emission maximum (in CCOC(C)=O): 460 nm
- emission maximum (in CO): 495 nm
- emission maximum (in CS(C)=O): 503 nm
- emission maximum (in Cc1ccccc1): 444 nm
- emission maximum (in ClC(Cl)Cl): 482 nm

Compound: CC(=O)OC[C@@H]1O[C@H](N2C=CC3=Nc4nc(C)[n+](C)cc4CN3C2=O)[C@@H](O)[C@H]1O
- emission maximum (in CC#N): 416 nm
- emission maximum (in CCO): 418 nm
- emission maximum (in O): 414 nm

Compound: CC1(C)C(/C=C/C=C/C=C/C=C2\N(CCCCS(=O)(=O)[O-])c3ccc4ccccc4c3C2(C)C)=[N+](CCCCS(=O)(=O)[O-])c2ccc3ccccc3c21
- emission maximum (in O): 820 nm

Compound: CCCCCCCCCCCCCCCCn1c(-c2cc(-c3nc4ccccc4n3CCCCCCCCCCCCCCCC)cc(-c3nc4ccccc4n3CCCCCCCCCCCCCCCC)c2)nc2ccccc21
- emission maximum (in C1CCOC1): 363 nm

Compound: CN(C)c1ccc(/C=C/c2cc(/C=C/c3ccc(N(C)C)cc3)nc(N)n2)cc1
- emission maximum (in Cc1ccccc1): 466 nm
- emission maximum (in ClC(Cl)Cl): 511 nm

Compound: OCCSc1cccc2[n+]1[B-](F)(F)n1c(c3cccc4cccc1c43)=N2
- emission maximum (in C1CCOC1): 505 nm
- emission maximum (in CC#N): 502 nm
- emission maximum (in CCCCCC): 497 nm
- emission maximum (in Cc1ccccc1): 505 nm
- emission maximum (in ClCCl): 501 nm

Compound: COC(=O)C1=C(C(=O)OC)C2(c3ccccc3-c3ccccc32)[C@@H](c2ccccc2)C=C2c3cc(OC)c(OC)cc3CCN21
- emission maximum (in ClCCl): 431 nm

Compound: Cc1cc(=O)oc2cc3cc(O)ccc3cc12
- emission maximum (in CC#N): 450 nm
- emission maximum (in CCO): 466 nm

Compound: ClP1(Cl)=N[P@@](Cl)(Oc2ccc3ccc4cccc5ccc2c3c45)=N[P@@](Cl)(Oc2ccc3ccc4cccc5ccc2c3c45)=N1
- emission maximum (in ClCCl): 455 nm

Compound: CCN(CC)c1ccc2cc(-c3ccc(-c4c5ccccc5c(-c5ccc(-c6cc7ccc(N(CC)CC)cc7oc6=O)cc5)c5ccccc45)cc3)c(=O)oc2c1
- emission maximum (in ClC(Cl)Cl): 472 nm

Compound: c1ccc(-c2nc(-c3ccccc3)nc(-c3ccc(-n4c5ccccc5c5cc(-c6ccc7oc8ccccc8c7c6)ccc54)cc3)n2)cc1
- emission maximum (in CCOC(C)=O): 470 nm
- emission maximum (in CN(C)C=O): 526 nm
- emission maximum (in Cc1ccccc1): 433 nm

Further lines, with some results ahead:

- emission maximum (in CCO): 670 nm
- emission maximum (in CO): 668 nm
- emission maximum (in CS(C)=O): 675 nm
- emission maximum (in O): 671 nm
Compound: CN1/C(=C/C=C(/C=C/c2sc3ccccc3[n+]2C)c2cc(F)cc(F)c2)Sc2ccccc21

- emission maximum (in C1CCCCC1): 595.5 nm
- emission maximum (in CCOC(C)=O): 595 nm
- emission maximum (in CO): 595 nm
Compound: Cc1ccccc1C1=C2C=c3c(oc4ccccc34)=[N+]2[B-](F)(F)n2c1cc1c3ccccc3oc12

- emission maximum (in C1CCOC1): 385 nm
Compound: c1ccc2c(c1)Cc1c-2sc2c1Cc1ccccc1-2

- emission maximum (in C1CCOC1): 604 nm
Compound: O=C(c1ccc(N2c3ccccc3Sc3ccccc32)cc1)c1ccc2sc3ccccc3c2c1
- emission maximum (in c1ccc2c(c1)c1ccccc1n2-c1ccc(-c2ccc(-n3c4ccccc4c4ccccc43)cc2)cc1): 524 nm

- emission maximum (in C1CCCCC1): 392 nm
Compound: COc1ccc2c3c(c4ccc(OC)cc4c2c1)C(C)(C)c1cc(-c2ccccc2)ccc1-3

- emission maximum (in ClCCl): 358 nm
Compound: C[Si](C)(C)c1ccc(-c2nc3ccccc3n2-c2ccccc2)cc1

- emission maximum (in CC#N): 637 nm
- emission maximum (in CCO): 631 nm
- emission maximum (in ClCCl): 620 nm
- emission maximum (in O): 650 nm
Compound: C=CCNc1ccc2ccc3oc4cc(=[N+](C)C)ccc-4nc3c2c1

- emission maximum (in ClCCl): 365 nm
Compound: Cc1cc2c3ccccc3sc2c2[nH]c3ccccc3c12

- emission maximum (in ClCCl): 358 nm
Compound: Fc1ccc(-c2ccc(-c3cc(-c4ccccn4)nc(-c4ccccn4)c3)cc2)c(F)c1

- emission maximum (in CCO): 647 nm
- emission maximum (in O): 647 nm
Compound: CC/[NH+]=c1\cc2oc3cc(NCCN)c4ccccc4c3nc-2cc1C

- emission maximum (in CC#N): 450 nm
- emission maximum (in CCCCCC): 392 nm
Compound: Nc1ccc(/C=C/c2ccc3ccccc3c2)cc1

- emission maximum (in ClCCl): 427 nm
Compound: CCCCCC(=O)c1cccc2sc3c(c12)P(=O)(c1ccccc1)c1ccccc1-3 (centres undefined)

- emission maximum (in CCO): 441 nm
- emission maximum (in ClCCl): 414 nm
Compound: c1ccc(-c2c3ccccc3c(-c3cncnc3)c3ccccc23)cc1

- emission maximum (in ClCCl): 353 nm
Compound: Cc1cc2c3ccccc3oc2c2[nH]c3ccccc3c12

- emission maximum (in CCCCCC): 617 nm
Compound: CC(C)[Si](C#Cc1c2nsnc2c(C#C[Si](C(C)C)(C(C)C)C(C)C)c2nc3c(ccc4ccccc43)nc12)(C(C)C)C(C)C

- emission maximum (in C1CCOC1): 565 nm
Compound: CCCc1ccc2c(c1)cc1n2B2c3c4c-1cccc4cc1cccc(c31)-c1cc3cc(CCC)ccc3n12

- emission maximum (in CO): 600 nm
- emission maximum (in ClC(Cl)Cl): 603 nm
Compound: Cc1nc2c(ccc3c2sc(/C=C/c2ccc(N(C)C)cc2)[n+]3C)s1

- emission maximum (in C1COCCO1): 447 nm
Compound: O=C1OC(c2ccccc2)=N/C1=C\c1ccccc1

- emission maximum (in CCOC(C)=O): 476 nm
Compound: CCn1c2ccccc2c2c(C#N)c3c(ccc4c3cnn4C)nc21

- emission maximum (in ClC(Cl)Cl): 668 nm
Compound: F[B-]1(F)n2c(cc3ccc4ccccc4c32)C(c2ccc(I)cc2)=C2C=C3CCc4ccccc4C3=[N+]21

- emission maximum (in ClCCl): 473 nm
Compound: N#CC(C#N)=Cc1ccc2c(c1)c1ccccc1n2-c1cccc2ccccc12

- emission maximum (in C1CCCCC1): 625 nm
- emission maximum (in CCOC(C)=O): 626.5 nm
- emission maximum (in CO): 625 nm
Compound: Cc1ccccc1C1=C2C=c3c(oc4c3ccc3ccccc34)=[N+]2[B-](F)(F)n2c1cc1c3ccc4ccccc4c3oc12

- emission maximum (in C1CCOC1): 508.44 nm
Compound: CCN(CC)c1ccc(-c2nc3c4ccccc4n(C)c3nc2-c2ccc([B-](F)(c3c(C)cc(C)cc3C)c3c(C)cc(C)cc3C)cc2)cc1

- emission maximum (in C1CCCCC1): 385 nm
- emission maximum (in CC#N): 375 nm
- emission maximum (in CO): 400 nm
- emission maximum (in ClC(Cl)Cl): 375 nm
Compound: CC1(C)CC(/N=C/c2ccc3ccc4cccc5ccc2c3c45)CC(C)(C)N1[O]

- emission maximum (in ClCCl): 540 nm
Compound: CCCCN1C(=O)c2ccc3c4ccc5c6c(cc(Br)c(c7ccc(c2c37)C1=O)c64)C(=O)N(CCCC)C5=O

- emission maximum (in ClCCl): 511 nm
Compound: COc1ccc(-c2c3ccccc3c(-c3ccc(OC)cc3)c3cc4ccccc4cc23)cc1

- emission maximum (in CO): 601 nm
- emission maximum (in ClC(Cl)Cl): 603 nm
Compound: Cc1nc2c(ccc3c2sc(/C=C/c2ccc(N(CCO)CCO)cc2)[n+]3C)s1

- emission maximum (in C1CCOC1): 488 nm
- emission maximum (in CC#N): 499 nm
- emission maximum (in ClC(Cl)Cl): 494 nm
- emission maximum (in ClCCl): 496 nm
Compound: COc1cc(/C=C/c2nc3ccccc3s2)c(OC)cc1/C=C/c1nc(C)nc(C)n1

- emission maximum (in ClCCl): 440 nm
Compound: CCn1c2c(-c3ccc(-c4cccs4)s3)cc(C(C)(C)C)cc2c2cc(C(C)(C)C)cc(-c3ccc(-c4cccs4)s3)c21

- emission maximum (in C1COCCO1): 368 nm
- emission maximum (in CC#N): 364 nm
- emission maximum (in CCCCCC): 370 nm
- emission maximum (in CCCCO): 371 nm
- emission maximum (in CCO): 372 nm
- emission maximum (in CCOC(C)=O): 368 nm
- emission maximum (in CO): 369 nm
- emission maximum (in ClC(Cl)Cl): 372 nm
- emission maximum (in ClCCl): 369 nm
- emission maximum (in c1ccccc1): 371 nm
Compound: COc1cccc(-n2c(-c3ccc(O)cc3)nc(C)c2C)c1

- emission maximum (in ClCCl): 672 nm
Compound: COc1c2ccccc2c(OC)c2c(C#Cc3ccccc3)c3cc4sccc4cc3c(C#Cc3ccccc3)c12
